{"source": "PubChem BioAssay (NCI)", "experiment_in_all_cases": "NCI anticancer screen, dose series, 384-well format", "key": {"[1]": {"test_system": "HCT-15 colon"}, "[2]": {"test_system": "SN12C renal"}, "[3]": {"test_system": "T-47D breast"}, "[4]": {"test_system": "DU-145 prostate"}, "[5]": {"test_system": "SNB-19 CNS"}, "[6]": {"test_system": "SK-MEL-28 melanoma"}, "[7]": {"test_system": "U251 glioblastoma"}, "[8]": {"test_system": "SF-295 CNS"}, "[9]": {"test_system": "NCI-H322M lung"}, "[10]": {"test_system": "A549 NSCLC"}, "[11]": {"test_system": "HOP-92 NSCLC"}, "[12]": {"test_system": "OVCAR-5 ovarian"}, "[13]": {"test_system": "SK-MEL-5 melanoma"}, "[14]": {"test_system": "K-562 leukemia"}, "[15]": {"test_system": "SK-OV-3 ovarian"}, "[16]": {"test_system": "HCT-116 colon"}, "[17]": {"test_system": "HCC-2998 colon"}, "[18]": {"test_system": "OVCAR-3 ovarian"}, "[19]": {"test_system": "CCRF-CEM leukemia"}, "[20]": {"test_system": "NCI-H522 lung"}, "[21]": {"test_system": "UACC-257 melanoma"}, "[22]": {"test_system": "OVCAR-4 ovarian"}, "[23]": {"test_system": "MDA-MB-435 melanoma"}, "[24]": {"test_system": "NCI-H460 NSCLC"}, "[25]": {"test_system": "A498 renal"}, "[26]": {"test_system": "MDA-MB-468 breast"}, "[27]": {"test_system": "MOLT-4 leukemia"}, "[28]": {"test_system": "SF-539 CNS"}, "[29]": {"test_system": "MALME-3M melanoma"}, "[30]": {"test_system": "TK-10 renal"}, "[31]": {"test_system": "LOX IMVI melanoma"}, "[32]": {"test_system": "786-0 renal"}}, "note": "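Here, GI50 denotes the concentration required for 50% inhibition of growth. TGI is the concentration that stops growth completely.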"}
{"smiles": "CC#CC(=O)N[C@H]1CCCN(c2c(F)cc(C(N)=O)c3[nH]c(C)c(C)c23)C1", "values": [{"measurement": "GI50", "setting": "[1]", "result": 10.8, "unit": "µM"}, {"measurement": "TGI", "setting": "[1]", "result": 22.9, "unit": "µM"}, {"measurement": "GI50", "setting": "[2]", "result": 14.9, "unit": "µM"}, {"measurement": "TGI", "setting": "[2]", "result": 28.9, "unit": "µM"}, {"measurement": "GI50", "setting": "[3]", "result": 5.36, "unit": "µM"}, {"measurement": "TGI", "setting": "[3]", "result": 18.6, "unit": "µM"}, {"measurement": "GI50", "setting": "[4]", "result": 18.1, "unit": "µM"}, {"measurement": "TGI", "setting": "[4]", "result": 37.2, "unit": "µM"}, {"measurement": "GI50", "setting": "[5]", "result": 17.3, "unit": "µM"}, {"measurement": "TGI", "setting": "[5]", "result": 32.4, "unit": "µM"}, {"measurement": "GI50", "setting": "[6]", "result": 18.5, "unit": "µM"}, {"measurement": "TGI", "setting": "[6]", "result": 33.1, "unit": "µM"}, {"measurement": "GI50", "setting": "[7]", "result": 17.3, "unit": "µM"}, {"measurement": "TGI", "setting": "[7]", "result": 31.4, "unit": "µM"}, {"measurement": "GI50", "setting": "[8]", "result": 13.9, "unit": "µM"}, {"measurement": "TGI", "setting": "[8]", "result": 26.9, "unit": "µM"}, {"measurement": "GI50", "setting": "[9]", "result": 16.2, "unit": "µM"}, {"measurement": "TGI", "setting": "[9]", "result": 30.9, "unit": "µM"}, {"measurement": "GI50", "setting": "[10]", "result": 18.1, "unit": "µM"}, {"measurement": "TGI", "setting": "[10]", "result": 37.9, "unit": "µM"}, {"measurement": "GI50", "setting": "[11]", "result": 15, "unit": "µM"}, {"measurement": "TGI", "setting": "[11]", "result": 33.7, "unit": "µM"}, {"measurement": "GI50", "setting": "[12]", "result": 16.9, "unit": "µM"}, {"measurement": "TGI", "setting": "[12]", "result": 38.4, "unit": "µM"}, {"measurement": "GI50", "setting": "[13]", "result": 13.8, "unit": "µM"}, {"measurement": "TGI", "setting": "[13]", "result": 26.8, "unit": "µM"}, {"measurement": "GI50", "setting": "[14]", "result": 15, "unit": "µM"}, {"measurement": "TGI", "setting": "[14]", "result": 28.9, "unit": "µM"}, {"measurement": "GI50", "setting": "[15]", "result": 14.4, "unit": "µM"}, {"measurement": "TGI", "setting": "[15]", "result": 34.3, "unit": "µM"}, {"measurement": "GI50", "setting": "[16]", "result": 13.8, "unit": "µM"}, {"measurement": "TGI", "setting": "[16]", "result": 27.3, "unit": "µM"}, {"measurement": "GI50", "setting": "[17]", "result": 11.1, "unit": "µM"}, {"measurement": "TGI", "setting": "[17]", "result": 23.2, "unit": "µM"}, {"measurement": "GI50", "setting": "[18]", "result": 14.5, "unit": "µM"}, {"measurement": "TGI", "setting": "[18]", "result": 28, "unit": "µM"}, {"measurement": "GI50", "setting": "[19]", "result": 16.9, "unit": "µM"}, {"measurement": "TGI", "setting": "[19]", "result": 30.8, "unit": "µM"}, {"measurement": "GI50", "setting": "[20]", "result": 4.54, "unit": "µM"}, {"measurement": "TGI", "setting": "[20]", "result": 17.5, "unit": "µM"}, {"measurement": "GI50", "setting": "[21]", "result": 11.5, "unit": "µM"}, {"measurement": "TGI", "setting": "[21]", "result": 23.7, "unit": "µM"}, {"measurement": "GI50", "setting": "[22]", "result": 13.4, "unit": "µM"}, {"measurement": "TGI", "setting": "[22]", "result": 26.6, "unit": "µM"}, {"measurement": "GI50", "setting": "[23]", "result": 17.2, "unit": "µM"}, {"measurement": "TGI", "setting": "[23]", "result": 34.1, "unit": "µM"}, {"measurement": "GI50", "setting": "[24]", "result": 15.8, "unit": "µM"}, {"measurement": "TGI", "setting": "[24]", "result": 29.6, "unit": "µM"}, {"measurement": "GI50", "setting": "[25]", "result": 14.7, "unit": "µM"}, {"measurement": "TGI", "setting": "[25]", "result": 28.4, "unit": "µM"}, {"measurement": "GI50", "setting": "[26]", "result": 2880, "unit": "nM"}, {"measurement": "TGI", "setting": "[26]", "result": 11.1, "unit": "µM"}, {"measurement": "GI50", "setting": "[27]", "result": 14, "unit": "µM"}, {"measurement": "TGI", "setting": "[27]", "result": 27.1, "unit": "µM"}, {"measurement": "GI50", "setting": "[28]", "result": 15.3, "unit": "µM"}, {"measurement": "TGI", "setting": "[28]", "result": 28.8, "unit": "µM"}, {"measurement": "GI50", "setting": "[29]", "result": 18, "unit": "µM"}, {"measurement": "TGI", "setting": "[29]", "result": 32, "unit": "µM"}, {"measurement": "GI50", "setting": "[30]", "result": 21, "unit": "µM"}, {"measurement": "TGI", "setting": "[30]", "result": 58.6, "unit": "µM"}, {"measurement": "GI50", "setting": "[31]", "result": 15.4, "unit": "µM"}, {"measurement": "TGI", "setting": "[31]", "result": 28.9, "unit": "µM"}, {"measurement": "GI50", "setting": "[32]", "result": 15.9, "unit": "µM"}, {"measurement": "TGI", "setting": "[32]", "result": 33.2, "unit": "µM"}]}
